Reference: patent US9018209B2, “Compounds and methods for the treatment of viruses and cancer” (Yale University, priority 2005, dated 2015)
Like-named read-outs stand apart in the source and are kept apart here.

Key:
IIIB strain of HIV-1 = assay: Anti-HIV-1 activity: protection of infected MT-2 cells, MTT colorimetric method; assay type: cell-based
MT-2 human T-cells = assay: Cytotoxicity: inhibition of MT-2 cell growth; assay type: cell-based
Excerpt: The preparation of the analogues 4a-h involved the reaction between 2-bromothiazole 1 with the corresponding 5-amino-2-R-phenol 2, followed by reaction with 4-bromo-2-methyl-2-butene in presence of Cs2CO3 as a base (Scheme 1; see Table 1 for antiviral activities (EC50) and cytotoxicities (IC50) of these compounds, as determined using human MT-2 cells infected with IIIB strain of HIV-1).
See, Ruiz-Caro, supra. and Lin, et al., Biochem. Pharmacol. 1994, 47, 171-174.

[1] = Table 3, thiazoles 18-23, N/A read as no activity, read-out: EC50
[2] = Table 3, cytotoxicity, MT-2 cells, read-out: IC50
[3] = Table 1B, for 50% protection in MT-2 cells, triplicate samples, NA for EC50 > CC50, read-out: EC50
[4] = Table 1B, for 50% inhibition of MT-2 cell growth, triplicate samples
[5] = Homo sapiens, MT2, Table 1a, cytotoxicity, MT-2 cells, read-out: IC50
[6] = Table 1, cytotoxicity, MT-2 cells, read-out: IC50
[7] = Homo sapiens, MT2, Table 3, cytotoxicity, MT-2 cells, read-out: IC50
[8] = Human immunodeficiency virus 1, IIIB, MT2, read-out: EC50
[9] = Human immunodeficiency virus 1, IIIB, MT2, Table of bicyclic-heteroaryl phenyl amines, MT-2 cell assays, read-out: EC50
[10] = Homo sapiens, MT2, Table of bicyclic-heteroaryl phenyl amines, cytotoxicity, MT-2 cell assays, read-out: IC50

## CCC(C)=CCOc1cc(Nc2nccs2)ccc1C (mixture of isomers) [Compound 18b, (E/Z)-N-(4-methyl-3-(3-methylpent-2-enyloxy)phenyl)thiazol-2-amine]
IIIB strain of HIV-1; [1]
  EC50: 8 µM
MT-2 human T-cells; [2]
  IC50: 32 µM

## CC(C)=CCOc1cc(Nc2ncnc(N)n2)ccc1Cl [Compound 7c]
IIIB strain of HIV-1; [3]
  EC50: 0.39 µM
MT-2 human T-cells; [4]
  CC50: 48 µM

## CCC(C)=CCOc1cc(Nc2nccs2)ccc1CC (mixture of isomers) [Compound 18e, (E/Z)-N-(4-ethyl-3-(3-methylpent-2-enyloxy)phenyl)thiazol-2-amine]
IIIB strain of HIV-1; [1]
  EC50: 10 µM
MT-2 human T-cells; [2]
  IC50: 29 µM

## Ethyl 2-(4-methoxy-3-(3-methylbut-2-enyloxy)phenylamino)thiazole-4-carboxylate [Compound 9c]
IIIB strain of HIV-1; [3]
  EC50: 0.075 µM

## COc1cc(OC)nc(Nc2ccc(C#N)c(OCC=C(C)C)c2)n1 [Compound 10h]
IIIB strain of HIV-1; [3]
  EC50: 0.16 µM
MT-2 human T-cells; [4]
  CC50: 0.81 µM

## COc1ccnc(Nc2ccc(C)c(OCC=C(C)C)c2)n1 [Compound 42b, 4-Methoxy-N-(4-methyl-3-(3-methylbut-2-enyloxy)phenyl)pyrimidin-2-amine]
IIIB strain of HIV-1; Human immunodeficiency virus 1, IIIB, MT2, Table 1a, heteroaryl derivatives, N/A read as no activity, read-out: EC50
  EC50: 0.32 µM
MT-2 human T-cells; [5]
  IC50: 41 µM

## CC(C)=CCOc1cccc(Nc2nccs2)c1 [Compound 4a, N-(3-(3-methylbut-2-enyloxy)phenylthiazol)-2-amine]
IIIB strain of HIV-1; Table 1, compounds 4a-h, human MT-2 cells infected with IIIB strain of HIV-1, N/A read as no activity, read-out: EC50
  EC50: 10 µM
MT-2 human T-cells; [6]
  IC50: 23 µM

## CSc1ccnc(Nc2ccc(Cl)c(OCC=C(C)C)c2)n1 [Compound 48]
IIIB strain of HIV-1; Table 1a, heteroaryl derivatives, N/A read as no activity, read-out: EC50
  EC50: 0.18 µM
MT-2 human T-cells; Table 1a, cytotoxicity, MT-2 cells, read-out: IC50
  IC50: 2.8 µM

## CC(C)=CCOc1cc(Nc2nccc3ccccc23)ccc1Cl [isoquinoline 62a]
IIIB strain of HIV-1; Table of bicyclic-heteroaryl phenyl amines, MT-2 cell assays, read-out: EC50
  EC50: 0.034 µM
MT-2 human T-cells; Table of bicyclic-heteroaryl phenyl amines, cytotoxicity, MT-2 cell assays, read-out: IC50
  IC50: 19 µM

## CC(C)=CCOc1cc(Nc2ccccn2)ccc1C [Compound 30b, N-(4-Methyl-3-(3-methylbut-2-enyloxy)phenyl)pyridin-2-amine]
MT-2 human T-cells; [5]
  IC50: 35 µM

## COc1cc(OC)nc(Nc2ccc(Cl)c(OCC=C(C)C)c2)n1 [Compound 9h]
IIIB strain of HIV-1; [3]
  EC50: 0.25 µM
MT-2 human T-cells; [4]
  CC50: 28 µM

## CC(C)=CCOc1cc(Nc2nccc(CO)n2)ccc1Cl [Compound 9m]
MT-2 human T-cells; [4]
  CC50: 0.22 µM

## Clc1ccc(Nc2nccs2)cc1OCC1CCCCC1 [Compound 22d, N-(4-Chloro-3-(cyclohexylmethoxy)phenyl)thiazol-2-amine]
MT-2 human T-cells; [7]
  IC50: 12 µM

## CCOc1ccnc(Nc2ccc(Cl)c(OCC=C(C)C)c2)n1 [Compound 9k]
IIIB strain of HIV-1; [3]
  EC50: 0.041 µM
MT-2 human T-cells; [4]
  CC50: 19 µM

## CC(C)=CCOc1cc(Nc2ncccn2)ccc1C#N [Compound 39h, N-(4-Cyano-3-(3-methylbut-2-enyloxy)phenyl)pyrimidin-2-amine]
IIIB strain of HIV-1; [8]
  EC50: 0.017 µM
MT-2 human T-cells; [5]
  IC50: < 0.2 µM
MT-2 human T-cells; [4]
  CC50: 0.036 µM

## CC(C)=CCOc1cc(Nc2nc(C)nc(Cl)n2)ccc1Cl [Compound 7e]
IIIB strain of HIV-1; [3]
  EC50: 12 µM
MT-2 human T-cells; [4]
  CC50: 40 µM

## CC(C)=CC(C)Oc1cc(Nc2ncccn2)ccc1Cl (stereo not drawn) [Compound 46, N-(4-chloro-3-(4-methylpent-3-en-2-yloxy)phenyl)pyrimidin-2-amine]
MT-2 human T-cells; Homo sapiens, MT2, Table 2a, cytotoxicity, MT-2 cells, read-out: IC50
  IC50: 22 µM

## CC(C)=CCOc1cc(Nc2ccccn2)ccc1Cl [Compound 30d, N-(4-Chloro-3-(3-methylbut-2-enyloxy)phenyl)pyridin-2-amine]
MT-2 human T-cells; [5]
  IC50: 15 µM

## CC(C)=CCOc1cc(Nc2nccc(C)n2)ccc1Cl [Compound 41d, N-(4-Chloro-3-(3-methylbut-2-enyloxy)phenyl)-4-methylpyrimidin-2-amine]
IIIB strain of HIV-1; [8]
  EC50: 0.039 µM
MT-2 human T-cells; [5]
  IC50: < 0.2 µM
MT-2 human T-cells; [4]
  CC50: 0.15 µM

## CC(C)=CCOc1cc(Nc2nccc3occc23)ccc1Cl [compound 54]
IIIB strain of HIV-1; [9]
  EC50: 0.006 µM
MT-2 human T-cells; [10]
  IC50: 25 µM

## COc1cc(N)nc(Nc2ccc(Cl)c(OCC=C(C)C)c2)n1 [Compound 9j]
IIIB strain of HIV-1; [3]
  EC50: 3 µM
MT-2 human T-cells; [4]
  CC50: 19 µM

## CC(C)=CCOc1cc(Nc2ccccn2)ccc1C#N [Compound 30h, N-(4-Cyano-3-(3-methylbut-2-enyloxy)phenyl)pyridin-2-amine]
MT-2 human T-cells; [5]
  IC50: 0.29 µM

## COc1ccc(Nc2nc(CO)cs2)cc1OCC=C(C)C [Compound 10c, (2-(4-Methoxy-3-(3-methylbut-2-enyloxy)phenylamino)thiazol-4-yl)methanol]
IIIB strain of HIV-1; Human immunodeficiency virus 1, IIIB, MT2
  EC50: 9 µM
MT-2 human T-cells; Homo sapiens, MT2
  IC50: 80 µM

## CCOC(=O)c1csc(Nc2ccc(C)c(OCC=C(C)C)c2)n1 [Compound 9b, Ethyl 2-(4-methyl-3-(3-methylbut-2-enyloxy)phenylamino)thiazole-4-carboxylate]
MT-2 human T-cells; Homo sapiens, MT2
  IC50: 11 µM

## COc1ccnc(Nc2ccc(Cl)c(Oc3ccccc3C)c2)n1 [Compound 11e]
MT-2 human T-cells; Table 2b, MT-2 cells
  CC50: 13 µM

## CC(C)=CCOc1cc(Nc2nccc3cccn23)ccc1Cl [compound 59]
IIIB strain of HIV-1; [9]
  EC50: 0.13 µM
MT-2 human T-cells; [10]
  IC50: 17 µM

## CNc1ccnc(Nc2ccc(C#N)c(OCC=C(C)C)c2)n1 [Compound 10d]
IIIB strain of HIV-1; [3]
  EC50: 0.005 µM
MT-2 human T-cells; [4]
  CC50: 0.022 µM

## CC(C)=CCOc1cc(Nc2ncc3ccoc3n2)ccc1Cl [compound 61]
IIIB strain of HIV-1; [9]
  EC50: 0.13 µM
MT-2 human T-cells; [10]
  IC50: 20 µM

## N#Cc1ccc(Nc2nccs2)cc1OC1=CCCC1 [Compound 20h, N-(4-Cyano-3-(cyclopentenyloxy)phenyl)thiazol-2-amine]
MT-2 human T-cells; [7]
  IC50: 1.7 µM

## Cc1cc(C#N)cc(C)c1Oc1nc(Nc2ccc(C#N)cc2)nc(N)c1Br [TMC125, etravirine, reference compound]
MT-2 human T-cells; [10]
  IC50: > 1 µM
MT-2 human T-cells; [4]
  CC50: > 1 µM

## CC(C)=CCOc1cc(Nc2nccn3cccc23)ccc1Cl [compound 60]
IIIB strain of HIV-1; [9]
  EC50: 0.019 µM
MT-2 human T-cells; [10]
  IC50: 20 µM

## CC/C(C)=C\COc1cc(Nc2nccs2)ccc1Cl [Compound 18d, (E/Z)-N-(4-chloro-3-(3-methylpent-2-enyloxy)phenyl)thiazol-2-amine]
IIIB strain of HIV-1; [1]
  EC50: 1 µM
MT-2 human T-cells; [2]
  IC50: 18 µM

## COc1nc(Cl)nc(Nc2ccc(Cl)c(OCC=C(C)C)c2)n1 [Compound 7f]
MT-2 human T-cells; [4]
  CC50: 26 µM

## CC(C)=CCOc1cc(Nc2nc(C)cs2)ccc1C [Compound 8b, 4-Methyl-N-(4-methyl-3-(3-methylbut-2-enyloxy)phenyl)thiazol-2-amine]
MT-2 human T-cells; Homo sapiens, MT2
  IC50: 15 µM

## CC(C)=CCOc1cc(Nc2ncnc(Cl)n2)ccc1Cl [Compound 7a]
MT-2 human T-cells; [4]
  CC50: 45 µM

## CCOC(=O)c1csc(Nc2cccc(OCC=C(C)C)c2)n1 [Compound 9a, Ethyl 2-(3-(3-methylbut-2-enyloxy)phenylamino)thiazole-4-carboxylate]
MT-2 human T-cells; Homo sapiens, MT2
  IC50: 21 µM

## (2-3-(3-Methylbut-2-enyloxy)phenylamino)thiazol-4-yl)methanol [Compound 10a]
MT-2 human T-cells; Table 2, cytotoxicity, MT-2 cells, read-out: IC50
  IC50: 38 µM

## CCCc1ccc(Nc2nccs2)cc1OCC=C(C)C [Compound 4f, N-(4-propyl-3-(3-methylbut-2-enyloxy)phenylthiazol)-2-amine]
MT-2 human T-cells; [6]
  IC50: 31 µM

## CC(C)=CCOc1cc(Nc2ccnc(N)n2)ccc1Cl [Compound 45d, N^4-(4-Chloro-3-(3-methylbut-2-enyloxy)phenyl)pyrimidin-2,4-diamine]
MT-2 human T-cells; [5]
  IC50: 2 µM

## CC(C)=CC(C)Oc1cc(Nc2nccs2)ccc1Cl (stereo not drawn) [Compound 19d, N-(4-Chloro-3-(4-methylpent-3-en-2-yloxy)phenyl)thiazol-2-amine]
MT-2 human T-cells; [7]
  IC50: 22 µM

## CC1=C(COc2cc(Nc3ncccn3)ccc2Cl)CCC1 [Compound 47]
MT-2 human T-cells; Table 2a, cytotoxicity, MT-2 cells, read-out: IC50
  IC50: 2.5 µM

## CC(C)=CCOc1cccc(Nc2nc(C)cs2)c1 [Compound 8a, 4-Methyl-N-(3-(3-methylbut-2-enyloxy)phenyl)thiazol-2-amine]
MT-2 human T-cells; Homo sapiens, MT2
  IC50: 26 µM

## CC(C)=CCOc1cc(Nc2ccnc(N)n2)ccc1C [Compound 45b, N^4-(4-Methyl-3-(3-methylbut-2-enyloxy)phenyl)pyrimidin-2,4-diamine]
MT-2 human T-cells; [5]
  IC50: 0.6 µM

## Ethyl 2-(4-methyl-3-(3-methylbut-2-enyloxy)phenylamino)thiazole-4-carboxylate [Compound 9b]
IIIB strain of HIV-1; [3]
  EC50: 0.01 µM
IIIB strain of HIV-1; Table 2b, derivatives of pyrimidine 11, NA for EC50 > CC50, read-out: EC50
  EC50: 0.01 µM

## Cc1ccnc2c1NC(=O)c1cccnc1N2C1CC1 [Nevirapine, nevirapine, reference compound]
MT-2 human T-cells; [5]
  IC50: > 10 µM
MT-2 human T-cells; [10]
  IC50: > 10 µM
MT-2 human T-cells; [4]
  CC50: > 10 µM

## CCOC(=O)c1csc(Nc2ccc(OC)c(OCC=C(C)C)c2)n1 [Compound 9c, Ethyl 2-(4-methoxy-3-(3-methylbut-2-enyloxy)phenylamino)thiazole-4-carboxylate]
MT-2 human T-cells; Homo sapiens, MT2
  IC50: 15 µM

## Cc1cn([C@H]2C=C[C@@H](CO)O2)c(=O)[nH]c1=O [d4T, Stavudine, reference compound]
IIIB strain of HIV-1; Human immunodeficiency virus 1, IIIB, text b104, read-out: anti-HIV activities in our assay
  EC50: 3 µM

## CCCCCCCOc1cc(Nc2nccs2)ccc1Cl [Compound 23d, N-(4-Chloro-3-(hexylmethoxy)phenyl)thiazol-2-amine]
MT-2 human T-cells; [7]
  IC50: 15 µM

## CC1=C(COc2cc(Nc3nccs3)ccc2Cl)CCC1 [Compound 21d, N-(4-Chloro-3-((2-methylcyclopent-1-enyl)methoxy)phenyl)thiazol-2-amine]
MT-2 human T-cells; [7]
  IC50: 2.5 µM

## COc1ccc(Nc2nc(C)cs2)cc1OCC=C(C)C [Compound 8c, 4-Methyl-N-(4-methoxy-3-(3-methylbut-2-enyloxy)phenyl)thiazol-2-amine]
MT-2 human T-cells; Homo sapiens, MT2
  IC50: 18 µM

## COCc1ccnc(Nc2ccc(Cl)c(OCC=C(C)C)c2)n1 [Compound 9l]
MT-2 human T-cells; [4]
  CC50: > 25 µM
